# Results: ChEMBL document CHEMBL3885881, “DrugMatrix”
# Species: Rattus norvegicus
# Test: DrugMatrix - Regimen: Daily Repeat
# Type: toxicity, organism-based, Sprague-Dawley
# Set-up: regimen Daily Repeat, gender Male, age 6-8 weeks
# Conditions: in vivo, po, route oral GAVAGE, vehicle .5 % CMC; for ABSOLUTE BASOPHIL / ABSOLUTE EOSINOPHIL / ABSOLUTE LYMPHOCYTE / ABSOLUTE MONOCYTE / ABSOLUTE SEGMENTED NEUTROPHIL / BASOPHIL / EOSINOPHIL / ERYTHROCYTE COUNT / HEMATOCRIT / HEMOGLOBIN / LEUKOCYTE COUNT / LYMPHOCYTE / MEAN CORPUSCULAR HEMOGLOBIN / MEAN CORPUSCULAR HEMOGLOBIN CONCENTRATION / MEAN CORPUSCULAR VOLUME / MONOCYTE / NEUTROPHIL / NUCLEATED RED BLOOD CELLS / PLATELET COUNT: tissue Blood; for ALANINE AMINOTRANSFERASE / ALBUMIN / ALKALINE PHOSPHATASE / ASPARTATE AMINOTRANSFERASE / BLOOD UREA NITROGEN / CARBON DIOXIDE / CHLORIDE / CHOLESTEROL / CREATINE PHOSPHOKINASE / CREATININE / GLUCOSE / LACTATE DEHYDROGENASE / LIPASE / PHOSPHORUS / POTASSIUM / SODIUM / TOTAL BILIRUBIN / TOTAL PROTEIN / URIC ACID: tissue Plasma
# [1] = 0 mg/kg, 72 h, dose level Control, time 3 day
# [2] = 0 mg/kg, 120 h, dose level Control, time 5 day
# [3] = 100 mg/kg, 72 h, dose level Low, time 3 day
smiles,measurement,setting,value
Cl.NC[C@H]1CC[C@H](C(=O)Oc2ccc(CCC(=O)O)cc2)CC1 [CETRAXATE HYDROCHLORIDE],ABSOLUTE BASOPHIL,[1],0 CELLS/uL
same,ABSOLUTE EOSINOPHIL,[1],284.5 CELLS/uL
same,ABSOLUTE LYMPHOCYTE,[1],11670.5 CELLS/uL
same,ABSOLUTE MONOCYTE,[1],420.83 CELLS/uL
same,ABSOLUTE SEGMENTED NEUTROPHIL,[1],1024.17 CELLS/uL
same,BASOPHIL,[1],0%
same,EOSINOPHIL,[1],1.67%
same,ERYTHROCYTE COUNT,[1],5.38 x10E6/uL
same,HEMATOCRIT,[1],34.05%
same,HEMOGLOBIN,[1],12.75 G/DL
same,LEUKOCYTE COUNT,[1],13.4 x10E3/uL
same,LYMPHOCYTE,[1],88.33%
same,MEAN CORPUSCULAR HEMOGLOBIN,[1],23.73 pg
same,MEAN CORPUSCULAR HEMOGLOBIN CONCENTRATION,[1],37.43 G/DL
same,MEAN CORPUSCULAR VOLUME,[1],63.4 fL
same,MONOCYTE,[1],2.83%
same,NEUTROPHIL,[1],7.17%
same,NUCLEATED RED BLOOD CELLS,[1],0 /100WBC
same,PLATELET COUNT,[1],1184.67 x10E3/uL
same,ALANINE AMINOTRANSFERASE,[1],45.33 u/L
same,ALBUMIN,[1],4.3 G/DL
same,ALKALINE PHOSPHATASE,[1],388.83 u/L
same,ASPARTATE AMINOTRANSFERASE,[1],84.83 u/L
same,BLOOD UREA NITROGEN,[1],15.5 mg/dL
same,CARBON DIOXIDE,[1],27 mmol/L
same,CHLORIDE,[1],101.8 MEQ/L
same,CHOLESTEROL,[1],76.67 mg/dL
same,CREATINE PHOSPHOKINASE,[1],301 u/L
same,CREATININE,[1],0.21 mg/dL
same,GLUCOSE,[1],168.83 mg/dL
same,LACTATE DEHYDROGENASE,[1],294.83 u/L
same,LIPASE,[1],9.8 u/L
same,PHOSPHORUS,[1],13.25 mg/dL
same,POTASSIUM,[1],6.41 MEQ/L
same,SODIUM,[1],143.72 MEQ/L
same,TOTAL BILIRUBIN,[1],0.22 mg/dL
same,TOTAL PROTEIN,[1],5.98 G/DL
same,URIC ACID,[1],1.5 mg/dL
same,ABSOLUTE BASOPHIL,[2],0 CELLS/uL
same,ABSOLUTE EOSINOPHIL,[2],190.67 CELLS/uL
same,ABSOLUTE LYMPHOCYTE,[2],12549.5 CELLS/uL
same,ABSOLUTE MONOCYTE,[2],276 CELLS/uL
same,ABSOLUTE SEGMENTED NEUTROPHIL,[2],1067.17 CELLS/uL
same,BASOPHIL,[2],0%
same,EOSINOPHIL,[2],1.33%
same,ERYTHROCYTE COUNT,[2],5.66 x10E6/uL
same,HEMATOCRIT,[2],35.92%
same,HEMOGLOBIN,[2],13.65 G/DL
same,LEUKOCYTE COUNT,[2],14.08 x10E3/uL
same,LYMPHOCYTE,[2],89%
same,MEAN CORPUSCULAR HEMOGLOBIN,[2],24.12 pg
same,MEAN CORPUSCULAR HEMOGLOBIN CONCENTRATION,[2],38.03 G/DL
same,MEAN CORPUSCULAR VOLUME,[2],63.47 fL
same,MONOCYTE,[2],2%
same,NEUTROPHIL,[2],7.67%
same,NUCLEATED RED BLOOD CELLS,[2],0.17 /100WBC
same,PLATELET COUNT,[2],1251.67 x10E3/uL
same,ALANINE AMINOTRANSFERASE,[2],43.33 u/L
same,ALBUMIN,[2],4.22 G/DL
same,ALKALINE PHOSPHATASE,[2],365.67 u/L
same,ASPARTATE AMINOTRANSFERASE,[2],83.67 u/L
same,BLOOD UREA NITROGEN,[2],18.17 mg/dL
same,CARBON DIOXIDE,[2],28.67 mmol/L
same,CHLORIDE,[2],103.5 MEQ/L
same,CHOLESTEROL,[2],71.5 mg/dL
same,CREATINE PHOSPHOKINASE,[2],284.5 u/L
same,CREATININE,[2],0.21 mg/dL
same,GLUCOSE,[2],161.67 mg/dL
same,LACTATE DEHYDROGENASE,[2],259.67 u/L
same,LIPASE,[2],9.5 u/L
same,PHOSPHORUS,[2],12.45 mg/dL
same,POTASSIUM,[2],6.49 MEQ/L
same,SODIUM,[2],144.25 MEQ/L
same,TOTAL BILIRUBIN,[2],0.2 mg/dL
same,TOTAL PROTEIN,[2],6.1 G/DL
same,URIC ACID,[2],1.73 mg/dL
same,ABSOLUTE BASOPHIL,[3],0 CELLS/uL
same,ABSOLUTE EOSINOPHIL,[3],0 CELLS/uL
same,ABSOLUTE LYMPHOCYTE,[3],4748 CELLS/uL
same,ABSOLUTE MONOCYTE,[3],119.67 CELLS/uL
same,ABSOLUTE SEGMENTED NEUTROPHIL,[3],265.67 CELLS/uL
same,BASOPHIL,[3],0%
same,EOSINOPHIL,[3],0%
same,ERYTHROCYTE COUNT,[3],5.52 x10E6/uL
same,HEMATOCRIT,[3],36.1%
same,HEMOGLOBIN,[3],13.33 G/DL
same,LEUKOCYTE COUNT,[3],5.13 x10E3/uL
same,LYMPHOCYTE,[3],92.67%
same,MEAN CORPUSCULAR HEMOGLOBIN,[3],24.2 pg
same,MEAN CORPUSCULAR HEMOGLOBIN CONCENTRATION,[3],36.97 G/DL
same,MEAN CORPUSCULAR VOLUME,[3],65.43 fL
same,MONOCYTE,[3],2.33%
same,NEUTROPHIL,[3],5%
same,NUCLEATED RED BLOOD CELLS,[3],0 /100WBC
same,PLATELET COUNT,[3],1331 x10E3/uL
same,ALANINE AMINOTRANSFERASE,[3],33.33 u/L
same,ALBUMIN,[3],4.63 G/DL
same,ALKALINE PHOSPHATASE,[3],363 u/L
same,ASPARTATE AMINOTRANSFERASE,[3],79 u/L
same,BLOOD UREA NITROGEN,[3],15 mg/dL
same,CARBON DIOXIDE,[3],25 mmol/L
same,CHLORIDE,[3],104 MEQ/L
same,CHOLESTEROL,[3],87.33 mg/dL
same,CREATINE PHOSPHOKINASE,[3],255.33 u/L
same,CREATININE,[3],0.17 mg/dL
same,GLUCOSE,[3],163.33 mg/dL
same,LACTATE DEHYDROGENASE,[3],159.67 u/L
same,LIPASE,[3],10 u/L
same,PHOSPHORUS,[3],12.2 mg/dL
same,POTASSIUM,[3],6 MEQ/L
same,SODIUM,[3],147 MEQ/L
same,TOTAL BILIRUBIN,[3],0.13 mg/dL
same,TOTAL PROTEIN,[3],6.57 G/DL
same,URIC ACID,[3],1.6 mg/dL
